Structures are written as SMILES.

We go through one compound from patent US20170234881A1, “METHODS OF DIAGNOSING AND TREATING CANCER” (INSERM ( INSTITUT NATIONAL DE LA SANTÉ ET DE LA RECHERCHE …, priority 2014, published 2017).

Assay [1] relates to HSD1-transfected MCF7 cells. As to the kind of experiment: Proliferation of 11βHSD1-transfected MCF7 cells (BrDU). Particulars: 5 μM OCDO for 24 h. It is filed as cell-based, human. The procedure:
FIG. 5. Ectopic expression of 11βHSD1 in MCF7 inhibits cell proliferation and OCDO reverses this effect. MCF7 cells were transfected by electroporation with a plasmid coding either the enzymes 11βHSD1 (HSD1) or the control empty vector (mock) and analyzed as followed: (A) the expression of 11βHSD1 was confirmed by immunoblotting using specific antibody against 11βHSD1 and normalized with actin; (B) The production of CT was determined by incubating the mock or the HSD1-transfected cells with ^14C-OCDO for 72 h at 37° C. The radioactive metabolites of interest were analyzed as in the legend of FIG. 4B. (C) The proliferation of the mock- or the HSD1-transfected MCF7 cells treated or not with 5 μM OCDO for 24 h were analyzed as in FIG. 2A. The results in B and C are the mean (±s.e.m) of three to five experiments, **P<0.01, ***P<0.001 (Student's t-test), ns: non specific.
MCF7 or HEK293T cells (5×10^6 cells) were transfected with 5 μg of the indicated plasmid using the NEON Transfection System and according to the manufacturer's recommendations. […] Several clones were analyzed by immunoblot analysis and real time RT-qPCR for the knock down of the expression of the protein of interest. […]

In the next assay the test system is MCF7 tumors. Description: Growth of MCF7 tumors implanted s.c. into mice. It is filed as in vivo. The procedure:
FIG. 2. OCDO is a tumor promoter in vitro and in vivo and its inhibition contributes to the anti-tumor effects of Tam and DDA. (A, B) Histograms representing the effect of OCDO or 17β-estrogen (E2) on MCF7 (A) and TS/A (B) cell proliferation after 24 h treatment using a colorimetric immunoassay measuring BrDU incorporation in DNA (C, D) Histogram representing the effect of OCDO on MCF7 (C) and TS/A (D) cell invasion. Data are the mean of three separate experiments (±s.e.m), *P<0.05, **P<0.01, ***P<0.001 (Student's t-test). (E, F) Mice were implanted s.c. with MCF7 (E) or TS/A (F) cells and animals (8 per group) were treated s.c. every day starting on the day of implantation with either the solvent vehicle or OCDO (16 μg/kg for MCF7 or 50 μg/kg for TS/A). Animals were monitored for tumour growth twice a week. […] (G) Mean (±s.e.m) of Ki67 positive cell number determined from IHC staining of MCF7 tumor sections from (E), n=8, *P<0.05 (Student's t-test) using HistoQuant, Pannoramic Viewer (3DHistech). […]
Exponentially growing MCF7, ShMCF7, E0771, MDA-MB231, MDA-MB468 and TS/A cells were collected, washed twice in PBS and resuspended in PBS. […] Animals were examined daily, and body weights were measured twice per week. In all the experiments, the tumor volume was determined by direct measurement with a caliper and was calculated using the formula (width^2×length)/2. […]

Regarding `CC(C)CCC[C@@H](C)[C@H]1CC[C@H]2[C@@H]3CC(=O)[C@@]4(O)C[C@@H](O)CC[C@]4(C)[C@H]3CC[C@]12C` [OCDO, 6-oxo-cholestan-3β,5α-diol], the “effect on the decrease of cell proliferation induced by 11βHSD1 expression” value in assay [1] is listed as “reversed this effect”. Further, the “tumor growth compared with the control group” value in the assay on MCF7 tumors (MCF7 tumors in immunodeficient mice, OCDO 16 μg/kg s.c. every day) was “significantly increased”. In addition, in the assay on MCF7 tumors (MCF7 tumors, IHC), the “proliferative marker Ki67 in tumors compared with control-treated tumors” value is on record as “increased”.
